# Results reported in US9801832B2, “Pharmaceutical composition having synergistic action of direct catalase inhibitors and modulators of no metabolism or of extracellular superoxide anion production which lead to catalase destruction” (Universitaetsklinikum Freiburg, priority 2012, dated 2017).
# Legend:
# [1] = system: MKN-45 gastric carcinoma cells; test: Induction of apoptosis in MKN-45 gastric carcinoma cells (percentages of apoptotic cells); type: cell-based, human; conditions: for induction of apoptosis: 12 500 MKN-45 cells in 100 μl, 4-6.5 hours at 37° C.
# Protocol: 12 500 MKN-45 cells in 100 μl (duplicate batches) were treated with the given concentrations of salicylic acid or remained free from salicylic acid. After 10 minutes the given concentrations of cyanidine were added.
# 12 500 MKN-45 cells in 100 μl (duplicate batches) were treated with 0.1 μg/ml salicylic acid or remained free from salicylic acid (control). […] After 6.5 hours the percentages of apoptotic cells were determined in duplicate batches.
# 12 500 MKN-45 cells in 100 μl (duplicate batches) either received no additive (control), 2 mM of the singlet oxygen scavenger histidine or 25 μM Caspase-8 inhibitor. […] After another 15 minutes cyanidine was added in the given concentrations. After 6.5 hours of incubation at 37° C. the percentages of apoptotic cells were determined.
# 12 500 MKN-45 cells in 100 μl (duplicate batches) either received no additive (control), 2 mM of the singlet oxygen scavenger histidine or 25 μM Caspase-8 inhibitor. […] After 6.5 hours incubation at 37° C. the percentage of apoptotic cells was determined. […]
# 12 500 MKN-45 cells in 100 μl medium were incubated with increasing concentrations of the given active ingredients, in the presence or absence of 0.1 μg/ml salicylic acid for 6 hours and then, the percentages of the apoptotic cells were determined (repeated determination).
# tumor cells [2] = conditions: cited from earlier work
# thrombocytes = conditions: cited from earlier work
# Gumbus lymphoma cells = test: Induction of apoptosis in Gumbus lymphoma cells (percentages of apoptotic cells); type: cell-based, human
# Protocol: 12 500 MKN-45 gastric carcinoma cells (A) or 25 000 Gumbus lymphoma cells (B) in 100 μl complete medium each either remained untreated (control) or received 2 mM histidine (singlet oxygen scavenger), 50 mM taurine (HOCl scavenger), or 2.4 mM L-NAME (NOS inhibitor). In Experiment A, additionally 10 mM mannitol (hydroxyl radical scavenger), 150 μM ABH (peroxidase inhibitor), 100 U/ml MnSOD (superoxide anion scavenger) and 25 μM FeTPPS (peroxynitrite decomposer) were used. Subsequently, the given concentrations of salicylic acid were added. After 5 hours (A) and 4 hours, respectively, of incubation at 37° C. the percentages of apoptotic cells were determined in duplicate batches according to the classical apoptosis features nuclear condensation, nuclear fragmentation, and membrane blebbing. Here, at least 200 cells were evaluated pre batch. […] Inhibitors: singlet oxygen scavenger histidine 2 mM; HOCl scavenger taurine 50 mM, NOS inhibitor L-NAME 2.4 mM, peroxidase inhibitor ABH 150 μM.
# tumor cell catalase = target: T1, tumor cell catalase (Homo sapiens, UniProt P04040); test: Catalase inhibition/inactivation in MKN-45 cells by challenge with exogenous peroxynitrite, NO donor or glucose oxidase; type: cell-based; set-up: endogenous in cells; host or cells: MKN-45 gastric carcinoma cells; conditions: 200 μM peroxynitrite
# T1 sequence (P04040 2-527 limits assumed): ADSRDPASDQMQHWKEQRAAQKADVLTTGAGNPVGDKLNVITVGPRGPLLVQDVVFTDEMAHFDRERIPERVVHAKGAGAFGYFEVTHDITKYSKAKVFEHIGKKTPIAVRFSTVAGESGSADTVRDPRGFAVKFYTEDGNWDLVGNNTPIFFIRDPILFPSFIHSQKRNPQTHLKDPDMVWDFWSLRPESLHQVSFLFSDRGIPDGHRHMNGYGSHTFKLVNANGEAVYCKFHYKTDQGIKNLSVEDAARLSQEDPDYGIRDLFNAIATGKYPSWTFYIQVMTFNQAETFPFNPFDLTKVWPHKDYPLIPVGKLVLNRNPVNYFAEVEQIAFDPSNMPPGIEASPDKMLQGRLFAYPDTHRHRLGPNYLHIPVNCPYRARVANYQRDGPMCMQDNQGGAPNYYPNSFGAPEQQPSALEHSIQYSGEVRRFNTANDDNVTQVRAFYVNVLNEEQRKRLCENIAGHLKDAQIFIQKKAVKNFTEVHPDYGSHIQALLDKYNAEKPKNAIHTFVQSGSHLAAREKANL
# Protocol: Direct catalase inhibition with relevance to the induction of apoptosis in tumor cells can be determined by pre-incubating tumor cells at first in the presence of the singlet oxygen scavenger histidine (2 mM) with the substance to be tested in increasing concentration (between 10 and 30 minutes at 37° C.) and subsequently adding peroxynitrite in the concentration range between 10 and 200 μM. The tumor cells are protected from the apoptosis-triggering effect of peroxynitrite by their membranous catalase. An inhibition of the catalase partially or completely cancels this protection and in the presence of peroxynitrite leads to the induction of apoptosis. The presence of 2 mM histidine ensures that the measured induction of apoptosis is not a singlet oxygen-mediated inactivation of the catalase by destruction of its active center. Alternatively, instead of addition of histidine inhibition of the NADPH oxidase by 100 μM AEBSF may take place. With prevented superoxide anion production also no singlet oxygen formation in the test system is possible.
# 4000 MKN-45 cells per 100 μl in […] were treated with increasing concentrations of monoclonal antibodies against catalase “Anti-KAT” or Anti-EGFR. After 15 minutes either 200 μM peroxynitrite (“PON”), 0.5 mM DEA-NONOate (rapidly decomposing NO donor), or 2 mU/ml glucose oxidase (GOX) that continuously generates hydrogen peroxide were added. After another two hours at 37° C. the percentages of apoptotic cells were determined in duplicate batches.
# The principle of identification is based on the fact that tumor cells (here MKN-45 gastric carcinoma cells) are protected from the apoptosis-triggering effect of exogenously added peroxynitrite by their membranous catalase. Addition of catalase inhibitors sensitizes the cells to the effect of exogenous peroxynitrite.
# The experiment was performed in analogy to that described in FIG. 9 except that instead of Anti-KAT a monoclonal antibody against SOD was used. The cells were tested in two different densities, namely 4000 and 12 500 cells per 100 μl. The challenge to test the activity of catalase was carried out with 200 μM peroxynitrite, or 0.5 mM DEA NONOate or 2 mU/ml GOX.
# Subsequently, 200 μM or no peroxynitrite was added. After 1.5 hours the percentages of apoptotic cells were determined in duplicate batches.
# Subsequently, 200 μM or no peroxynitrite was added. After 1 hour the percentages of apoptotic cells were determined in duplicate batches.
# 12 500 MKN-45 cells in 100 μl medium received 100 μM AEBSF or no additive. After 15 minutes the given concentrations of cyanidine were added and the batches were incubated for 15 minutes at 37° C. Subsequently, 200 μM peroxynitrite (PON) were added or the batches were not treated with peroxynitrite (control). After 1 hour the percentages of apoptotic cells were determined in duplicate batches.
# 12 500 MKN-45 cells received no addition (control), or 2 mM histidine, or 100 μM AEBSF or 2.4 mM L-NAME immediately before the addition of the given concentrations of salicylic acid (“0 min”) or 20 minutes after addition of salicyl. 20 minutes after the addition of salicylic acid 200 μM peroxynitrite (PON) were added to all batches except the control batches. After another 2 hours the percentages of apoptotic cells were determined in duplicates.
# tumor cells [3] = conditions: cited from earlier work; remark: listed apart in the source
"catalase inactivation, alone at the chosen concentration (tumor cell catalase; 6.25 ng/ml alone, MKN-45 (FIG. 21))",Compound,"synergistic interaction with salicylic acid in the induction of apoptosis ([1]; 0.1 μg/ml salicylic acid, MKN-45, 6 hours (FIGS. 22-25))",induction of apoptosis ([1]; substance alone),superoxide anion production (tumor cells [2]),minor increase of the superoxide anion production (thrombocytes; 6.25 and 12.5 μg/ml),"production of superoxide anions, hydrogen peroxide, and singlet oxygen (thrombocytes)","dependence of the induction of apoptosis on singlet oxygen (Gumbus lymphoma cells; 2 mM histidine (singlet oxygen scavenger), Gumbus cells)","ROS signal path of the induced apoptosis (inhibitor profile) (Gumbus lymphoma cells; Gumbus cells, L-NAME, taurine, ABH)","induction of apoptosis (Gumbus lymphoma cells; substance alone, 25 000 Gumbus lymphoma cells in 100 μl, 4 hours at 37° C.)",synergism with cyanidine in the induction of apoptosis [1],synergism with taxol in the induction of apoptosis [1],"induction of apoptosis, substance alone at the concentration of the combination ([1]; 0.15 ng/ml cyanidine alone, 0.08 μg/ml salicylic acid alone, MKN-45 (FIG. 16))","induction of apoptosis, alone at 0.1 μg/ml ([1]; 0.1 μg/ml, MKN-45 (FIG. 18))","ROS signal path of the induced apoptosis (inhibitor profile) ([1]; MKN-45, L-NAME, FeTPPS, taurine, ABH)","concentration up to which almost no effect on apoptosis is shown ([1]; administered alone, MKN-45, 6 hours (FIG. 16))","dependence of the induction of apoptosis on singlet oxygen ([1]; substance alone, 2 mM histidine (singlet oxygen scavenger), MKN-45)","catalase inhibition / sensitization to peroxynitrite with inhibited superoxide anion synthesis (tumor cell catalase; 100 μM AEBSF, MKN-45)",inhibition of tumor cell catalase (sensitization to exogenous peroxynitrite) (tumor cell catalase; MKN-45),"requirement of singlet oxygen, superoxide anions and NO for catalase inhibition/inactivation (tumor cell catalase; 2 mM histidine, 100 μM AEBSF or 2.4 mM L-NAME, MKN-45 (FIGS. 14, 15))",sensitivity of tumor cells for ROS signaling-mediated apoptosis (autocrine and by interaction with non-transformed cells) (tumor cells [3])
–,Oc1ccc(C=Cc2cc(O)cc(O)c2)cc1 [resveratrol],synergistically reacts,still does not lead to a significant induction of apoptosis,leads to a dramatic increase of the superoxide anion production,statistically insignificant,"leads to a reduction of the production of superoxide anions, hydrogen peroxide, and singlet oxygen",–,–,–,–,–,–,–,–,–,–,–,–,–,–
almost no catalase inactivation,O=C(O)c1ccccc1O [salicylic acid],–,induces ROS-dependent induction of apoptosis,–,–,–,does not depend on singlet oxygen,"In the low concentration range of the salicylic acid preferably the NO/peroxynitrite signal path runs, with higher concentrations the HOCl path predominates",induces ROS-dependent induction of apoptosis,Synergism is achieved,Synergism is achieved,remained ineffective,ineffective in itself,"In the low concentration range of the salicylic acid preferably the NO/peroxynitrite signal path runs, with higher concentrations the HOCl path predominates",up to 0.32 μg/ml,does not depend on singlet oxygen,independent of the superoxide anion synthesis,inhibits the catalase of the tumor cells,"independent of superoxide anions, NO and singlet oxygen",–
–,Nc1nc[nH]n1 [3-aminotriazole],–,–,–,–,–,–,–,–,–,–,–,–,–,–,–,–,–,–,become sensitive for these two processes
